The subject of assay [1] is HCT116 (human colon cancer). As to the kind of experiment: Cancer cell viability, CCK-8, HCT116. The assay is classed as cell-based. The conditions noted are these: Homo sapiens, HCT-116, 48 h, HCT116, 48 hours, CCK-8; read-out: EC50 (uM, HCT116). The procedure:
Cancer cell lines. […] The plate is incubated for 48 hours.
CCK-8 solution is added directly to the cells.

Assay [2] deals with recombinant human caseinolytic peptidase hClpP (Homo sapiens, UniProt Q16740). As to the kind of experiment: hClpP peptide hydrolysis assay (Ac-WLA-AMC). The conditions noted are these: for Time course of hClpP activity: 1 uM, Protocol 2; for Dose-dependency of hClpP activation: Protocol 2, purified hClpP, Ac-WLA-AMC.
Chain of recombinant human caseinolytic peptidase hClpP (Q16740 57-277): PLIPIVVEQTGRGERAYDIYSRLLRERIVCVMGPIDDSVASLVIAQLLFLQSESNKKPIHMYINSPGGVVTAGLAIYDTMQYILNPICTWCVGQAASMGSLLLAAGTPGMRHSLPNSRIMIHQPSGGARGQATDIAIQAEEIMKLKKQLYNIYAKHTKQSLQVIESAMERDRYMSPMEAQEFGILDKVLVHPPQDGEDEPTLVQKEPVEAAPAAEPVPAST
Procedure: Briefly, the activity of recombinant hClpP proteolytic subunit (1 μg/mL) was measured in the assay buffer composed of 50 mM Tris, 10 mM MgCl2, 100 mM KCl, 1 mM DTT, 4 mM ATP, 0.02% Triton X-100 and 5% Glycerol, pH 8.0 (HCl) using 10 µM of fluorogenic Ac-WLA-AMC substrate as described in references above. […] Using the first protocol (Protocol 1), the reaction was initiated by immediately mixing enzyme and substrate in the presence of indicated doses of compounds. Applying a second protocol (Protocol 2), the enzyme and compounds were mixed and incubated in assay buffer for 60 min before initiating the reaction by adding Ac-WLA-ACM substrate.
Enzymatic activity of hClpP was measured in assay buffer (as described in Experimental Procedure/Materials and Methods) and the level of fluorescence of liberated coumarin monitored continuously.

The results in this text go back to US12692267B2 (Madera Therapeutics, LLC, priority 2019, dated 2026).

As a reminder, the EC50 is the concentration giving half of the maximal effect. On to `CC1(C)CN=C2N(Cc3ccc(Cl)cc3)C(=O)C3=C(CCN(Cc4cccc(C#N)c4)C3)N2C1` [Example 70, 3-({9-[(4-chlorophenyl)methyl]-13,13-dimethyl-8-oxo-1,5,9,11-tetraazatricyclo[8.4.0.0^2,7]tetradeca-2 (7), 10-dien-5-yl}methyl)benzonitrile], for which, in assay [1], the EC50 was found to be 1.4 µM.
Turning to `O=C1C2=C(CN(Cc3ccccc3)C2)N2CCN=C2N1Cc1ccc(Cl)cc1` [Example 80, 4-benzyl-8-[(4-chlorophenyl)methyl]1,4,8,10-tetraazatricyclo[7.3.0.0^2,6]dodeca-2 (6),9-diene-7-one], the “Time course of hClpP activity” value in assay [2] is given as “time-dependent increase in hClpP activity”. Moreover, in assay [1], the EC50 stood at 0.011 µM.
As for `N#Cc1cccc(CC2CCC3=C(C2)C(=O)N(Cc2ccc(Cl)cc2)C2=NCCN23)c1` (stereo not drawn) [Ex. 68, 3-({4-[(4-chlorophenyl)methyl]-5-oxo-1H,2H,4H,5H,6H,7H,8H,9H-imidazo[1,2-a]quinazolin-7-yl}methyl)benzonitrile], the “Dose-dependency of hClpP activation” value in assay [2] was “Dose-dependent increases in hClpP activity”. The EC50 in assay [1] was 1.5 µM.
For the molecule `N#Cc1cccc(CN2CC3=C(C2)N2CCN=C2N(Cc2ccc(Br)cc2)C3=O)c1` [Example 76, 3-({8-[(4-bromophenyl)methyl]-7-oxo-1,4,8,10-tetraazatricyclo[7.3.0.0^2,6}dodeca-2(6),9-dien-4-yl}methyl)benzonitrile], in assay [1], the EC50 turned out to be 0.003 µM.
Still for that read-out and setting: next, `Cc1nc2c(c(=O)n1Cc1ccc(Cl)cc1)CN(Cc1cccc(C#N)c1)C2` [Example 69, 3-({3-[(4-chlorophenyl)methyl]-2-methyl-4-oxo-3H,4H,5H,6H,7H-pyrrolo[3,4-d]pyrimidin-6-yl}methyl)benzonitrile]: 0.097 µM.
Take `N#Cc1cccc(CN2CCc3ncn(Cc4ccc(Br)cc4)c(=O)c3C2)c1` [Example 74, 3-({3-[(4-bromophenyl)methyl]-4-oxo-3H,4H,5H,6H,7H,8H-pyrido[4,3-d]pyrimidin-6-yl}methyl)benzonitrile]: the EC50 in assay [1] was found to be 0.02 µM.
Consider `O=C1C2=C(CN(Cc3ccccc3)C2)N2CCN=C2N1Cc1ccc(Br)cc1` [Example 81, 4-benzyl-8-[(4-bromophenyl)methyl]1,4,8,10-tetraazatricyclo[7.3.0.0^2,6]dodeca-2 (6),9-diene-7-one], for which the “Time course of hClpP activity” value in assay [2] is listed as “time-dependent increase in hClpP activity”. For the same molecule, the EC50 in assay [1] was 0.039 µM.
With `N#Cc1cccc(CC2CCC3=C(C2)C(=O)N(Cc2ccc(C(F)(F)F)cc2)C2=NCCN23)c1` (stereo not drawn) [Ex. 67, 3-[(5-oxo-4-{[4-(trifluoromethyl)phenyl]methyl}-1H,2H,4H,5H,6H,7H,8H,9H-imidazo[1,2-a]quinazolin-7-yl)methyl]benzonitrile], the “Dose-dependency of hClpP activation” value in assay [2] was “Dose-dependent increases in hClpP activity”. Also, in assay [1], the 50% effective concentration (EC50) came out at 1.2 µM.
Consider `N#Cc1cccc(CN2CCC3=C(C2)C(=O)N(Cc2ccc(Cl)cc2)C2=NCC(F)(F)CN23)c1` [Example 71, 3-({9-[(4-chlorophenyl)methyl]-13,13-difluoro-8-oxo-1,5,9,11-tetraazatricyclo[8.4.0.0^2,7]tetradeca-2 (7), 10-dien-5-yl}methyl)benzonitrile], for which, in assay [1], the EC50 came out at 0.244 µM.
As for `N#Cc1cccc(CN2CCc3ncn(Cc4ccc(C(F)(F)F)cc4)c(=O)c3C2)c1` [Example 75, 3-[(4-oxo-3-{[4-(trifluoromethyl)phenyl]methyl}-3H,4H,5H,6H,7H,8H-pyrido[4,3-d]pyrimidin-6-yl)methyl]benzonitrile], in assay [1], the EC50 is 0.098 µM.
For the molecule `N#Cc1cccc(CN2CC3=C(C2)N2CCN=C2N(Cc2ccc(Cl)cc2)C3=O)c1` [Ex. 66], the “Dose-dependency of hClpP activation” value in assay [2] is “Dose-dependent increases in hClpP activity”. Further, in assay [1], the EC50 is 0.0055 µM.
On to `N#Cc1cccc(CN2CCc3c(c(=O)n(Cc4ccc(C(F)(F)F)cc4)c(=O)n3CCCCN)C2)c1` [Example 58, 3-((1-(4-aminobutyl)-2,4-dioxo-3-(4-(trifluoromethyl)benzyl)-1,2,3,4,7,8-hexahydropyrido[4,3-d]pyrimidin-6 (5H)-yl)methyl)benzonitrile], for which, in assay [1], the 50% effective concentration (EC50) was 0.23 µM.
On the same count and under the same terms, next, `Cc1nc2c(c(=O)n1Cc1ccc(C(F)(F)F)cc1)CN(Cc1cccc(C#N)c1)CC2` [Example 73, 3-[(2-methyl-4-oxo-3-{[4-(trifluoromethyl)phenyl]methyl}-3H,4H,5H,6H,7H,8H-pyrido[4,3-d]pyrimidin-6-yl)methyl]benzonitrile]: 0.069 µM.
Take `N#Cc1cccc(CN2CCC3=C(C2)C(=O)N(Cc2ccc(Br)cc2)C2=NCCCN23)c1` [Example 84, 3-({9-[(4-bromophenyl)methyl]-8-oxo-1,5,9,11-tetraazatricyclo[8.4.0.0 ^2,7]tetradeca-2(7), 10-dien-5yl}methyl)benzonitrile]: the “Time course of hClpP activity” value in assay [2] is listed as “time-dependent increase in hClpP activity”. Moreover, the EC50 in assay [1] came to 0.013 µM.
As to `CC#Cc1cccc(CN2CCc3ncn(Cc4ccc(Br)cc4)c(=O)c3C2)c1` [Example 78], in assay [1], the EC50 is 5.2 µM.
Same read-out and setting: next, `O=C1CCc2ccc(CN3CCC4=C(C3)C(=O)N(Cc3ccc(Cl)cc3)C3=NCCN34)cc21` [Example 64, 7-[(4-chlorophenyl)methyl]-11-[(3-oxo-2,3-dihydro-1H-inden-5-yl)methyl]-2,5,7,11-tetraazatricyclo[7.4.0.0^2,6]trideca-1(9),5-dien-8-one]: 10.5 µM; `CC#Cc1cccc(CN2CCc3ncn(Cc4ccc(C(F)(F)F)cc4)c(=O)c3C2)c1` [Example 79]: 5.7 µM.
On to `N#Cc1cccc(CN2CCC3=C(C2)C(=O)N(Cc2ccc(Cl)cc2)C2=NCCCN23)c1` [Example 83, 3-({9-[(4-chlorophenyl)methyl]-8-oxo-1,5,9,11-tetraazatricyclo[8.4.0.0 ^2,7]tetradeca-2(7), 10-dien-5yl}methyl)benzonitrile], for which, in assay [2], the “Time course of hClpP activity” value is “time-dependent increase in hClpP activity”. For the same molecule, in assay [1], the EC50 worked out at 0.28 µM.
For `O=C(NCc1ccc2c(c1)OCO2)c1nnc(Cc2ccc(F)cc2Cl)o1` [Ex. 1, reference compound], in assay [2], the “Dose-dependency of hClpP activation” value is “dose-dependent increases in hClpP activity”.
For `Cc1nc2c(c(=O)n1Cc1ccc(Br)cc1)CN(Cc1cccc(C#N)c1)CC2` [Example 72, 3-({3-[(4-bromophenyl)methyl]-2-methyl-4-oxo-3H,4H,5H,6H,7H,8H-pyrido[4,3-d]pyrimidin-6-yl}methyl)benzonitrile], the EC50 in assay [1] came to 0.077 µM.
On to `O=C1C2=C(CN(Cc3ccccc3)C2)N2CCN=C2N1Cc1ccc(C(F)(F)F)cc1` [Example 82, 4-benzyl-8-{[4-(trifluoromethyl)phenyl]methyl}1,4,8,10-tetraazatricyclo[7.3.0.0^2,6]dodeca-2 (6), 9-diene-7-one], for which the “Time course of hClpP activity” value in assay [2] was “time-dependent increase in hClpP activity”. The EC50 in assay [1] amounted to 0.01 µM.
In the case of `N#Cc1cccc(CN2CC3=C(C2)N2CCN=C2N(Cc2ccc(C(F)(F)F)cc2)C3=O)c1` [Example 77, 3-[(7-oxo-8-{[4-(trifluoromethyl)phenyl]methyl}-1,4,8,10-tetraazatricyclo[7.3.0.0^2,6]dodeca-2 (6),9-dien-4-yl)methyl]benzonitrile], the 50% effective concentration (EC50) in assay [1] is 0.0021 µM.
